| SMILES | melting point |
| --- | --- |
| O=[N+]([O-])c1ccccc1CC(=NO)NCc1ncc(C(F)(F)F)cc1Cl | 122 to 126 °C |
| CC(C#N)(NC(=O)c1c(Cl)cccc1Cl)c1ncc(C(F)(F)F)cc1Cl (centres unmarked) [Compound 110, N-[1-(3-Chloro-5-trifluoromethyl-2-pyridyl)-1-cyanoethyl]-2,6-dichlorobenzamide] | 166 °C |

Source: US6630495B1, “Fungicides” (priority 1999, dated 2003)
